Measured values published in ChEMBL document CHEMBL3132792, “Exploring the effect of N-substitution in nor-lobelane on the interaction with VMAT2: discovery of a potential clinical candidate for treatment of methamphetamine abuse” (Medchemcomm, 2013).

Assays:
[1] = biological target: T1, Synaptic vesicular amine transporter (Rattus norvegicus, UniProt Q01827); test: Inhibition of [3H]DA uptake at VMAT2 in rat striatal synaptic vesicles
[2] = biological target: T1, Synaptic vesicular amine transporter; test: Inhibition of [3H]DTBZ binding to VMAT2 in rat synaptic vesicle membranes; format: cell membranes

T1 sequence (Q01827 whole entry): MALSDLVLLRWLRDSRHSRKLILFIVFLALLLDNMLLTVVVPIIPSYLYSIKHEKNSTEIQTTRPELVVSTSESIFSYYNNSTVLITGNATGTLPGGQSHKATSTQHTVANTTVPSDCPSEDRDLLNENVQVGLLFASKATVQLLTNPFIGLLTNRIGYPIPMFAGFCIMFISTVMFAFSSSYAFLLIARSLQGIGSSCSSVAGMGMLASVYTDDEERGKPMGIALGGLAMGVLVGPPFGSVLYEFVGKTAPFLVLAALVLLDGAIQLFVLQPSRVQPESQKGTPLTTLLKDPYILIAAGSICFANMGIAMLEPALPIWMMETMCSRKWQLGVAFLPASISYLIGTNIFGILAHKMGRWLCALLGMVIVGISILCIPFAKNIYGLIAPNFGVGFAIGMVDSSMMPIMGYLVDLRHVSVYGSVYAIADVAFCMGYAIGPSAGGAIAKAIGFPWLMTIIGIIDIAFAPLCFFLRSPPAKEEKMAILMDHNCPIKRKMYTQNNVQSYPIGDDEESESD

SMILES	Ki [1]	Ki [2]
OC[C@H](O)CN1[C@@H](CCc2ccc(Cl)cc2Cl)CCC[C@H]1CCc1ccc(Cl)cc1Cl	140 nM	10400 nM
COC(=O)CN1[C@@H](CCc2ccccc2)CCC[C@H]1CCc1ccccc1	340 nM	4400 nM
c1ccc(CC[C@H]2CCC[C@@H](CCc3ccccc3)N2)cc1	44 nM	–
COc1ccc(C[C@H]2CCC[C@@H](Cc3ccc(OC)cc3)N2C[C@@H](O)CO)cc1	570 nM	91000 nM
COc1ccc(F)c(CC[C@H]2CCC[C@@H](CCc3cc(OC)ccc3F)N2C[C@@H](O)CO)c1	160 nM	210 nM
OC[C@@H](O)CN1[C@@H](CCc2ccccc2)CCC[C@H]1CCc1ccccc1	860 nM	1280 nM
COc1ccccc1CC[C@H]1CCC[C@@H](CCc2ccccc2OC)N1C[C@H](O)CO	790 nM	1870 nM
FC(F)Oc1ccc(CC[C@H]2CCC[C@@H](CCc3ccc(OC(F)F)cc3)N2)cc1	23 nM	1750 nM
OC[C@@H](O)CN1[C@@H](CCc2cccc3ccccc23)CCC[C@H]1CCc1cccc2ccccc12	80 nM	130 nM
OC[C@H](O)CN1[C@@H](CCc2ccc(OC(F)F)cc2)CCC[C@H]1CCc1ccc(OC(F)F)cc1	60 nM	530 nM
OC[C@@H](O)CN1[C@@H](CCc2ccc(-c3ccccc3)cc2)CCC[C@H]1CCc1ccc(-c2ccccc2)cc1	2250 nM	90200 nM
COc1cccc(CC[C@H]2CCC[C@@H](CCc3cccc(OC)c3)N2C[C@@H](O)CO)c1	140 nM	460 nM
OC[C@H](O)CN1[C@@H](CCc2cccc(F)c2)CCC[C@H]1CCc1cccc(F)c1	190 nM	1000 nM
COc1cccc(CC[C@H]2CCC[C@@H](CCc3cccc(OC)c3)N2C[C@H](O)CO)c1	520 nM	2730 nM
OC[C@@H](O)CN1[C@@H](CCc2ccc3c(c2)OCO3)CCC[C@H]1CCc1ccc2c(c1)OCO2	760 nM	5610 nM
OCCN1[C@@H](CCc2ccccc2)CCC[C@H]1CCc1ccccc1	170 nM	1430 nM
COc1ccc(F)c(CC[C@H]2CCC[C@@H](CCc3cc(OC)ccc3F)N2)c1	39 nM	930 nM

SMILES	Ki [1]	Ki [2]
COc1ccccc1CC[C@H]1CCC[C@@H](CCc2ccccc2OC)N1C[C@@H](O)CO	490 nM	1040 nM
OC[C@H](O)CN1[C@@H](CCc2ccc3c(c2)OCO3)CCC[C@H]1CCc1ccc2c(c1)OCO2	160 nM	1300 nM
OC[C@@H](O)CN1[C@@H](CCc2ccc(Cl)cc2Cl)CCC[C@H]1CCc1ccc(Cl)cc1Cl	90 nM	13900 nM
OC[C@H](O)CN1[C@@H](CCc2ccc(-c3ccccc3)cc2)CCC[C@H]1CCc1ccc(-c2ccccc2)cc1	790 nM	> 100000 nM
CN(C)CCN1[C@@H](CCc2ccccc2)CCC[C@H]1CCc1ccccc1	180 nM	9590 nM
OC[C@H](O)CN1[C@@H](CCc2cccc3ccccc23)CCC[C@H]1CCc1cccc2ccccc12	30 nM	310 nM
CCCN1[C@@H](CCc2ccccc2)CCC[C@H]1CCc1ccccc1	87 nM	–
COc1ccc(C[C@H]2CCC[C@@H](Cc3ccc(OC)cc3)N2)cc1	48 nM	13100 nM
N#CCN1[C@@H](CCc2ccccc2)CCC[C@H]1CCc1ccccc1	4490 nM	22600 nM
Fc1cc(F)cc(CC[C@H]2CCC[C@@H](CCc3cc(F)cc(F)c3)N2)c1	43 nM	5240 nM
OC[C@H](O)CN1[C@@H](CCc2ccccc2)CCC[C@H]1CCc1ccccc1	190 nM	560 nM
OC[C@H](O)CN1[C@@H](CCc2cc(F)cc(F)c2)CCC[C@H]1CCc1cc(F)cc(F)c1	104 nM	620 nM
OC[C@@H](O)CN1[C@@H](CCc2cccc(F)c2)CCC[C@H]1CCc1cccc(F)c1	1030 nM	1080 nM
N=C(N)NCCN1[C@@H](CCc2ccccc2)CCC[C@H]1CCc1ccccc1	680 nM	3490 nM
CN(C)N1[C@@H](CCc2ccccc2)CCC[C@H]1CCc1ccccc1	54 nM	> 100000 nM
NCCN1[C@@H](CCc2ccccc2)CCC[C@H]1CCc1ccccc1	510 nM	5590 nM
CCN1[C@@H](CCc2ccccc2)CCC[C@H]1CCc1ccccc1	60 nM	–
